The source made the active and inactive calls. How the calls were made is not given here.
System: CCRIS mutagenicity, Ames/micronucleus/aberration tests
Test: CCRIS mutagenicity studies
Source text: The CCRIS database contains chemical records with carcinogenicity, mutagenicity, tumor promotion, and tumor inhibition test results. It was developed by the National Cancer Institute (NCI). Data are derived from studies cited in primary journals, current awareness tools, NCI reports, and other sources. Test results have been reviewed by experts in carcinogenesis and mutagenesis.
CCRIS provides historical information from the years 1985 - 2011. It is no longer updated.
This is an archive assay for CCRIS mutagenicity studies.

[1] = Test System: AMES SALMONELLA TYPHIMURIUM, Strain/Indicator: TA98, Metabolic Activation: NONE, Method: PREINCUBATION
[2] = Test System: AMES SALMONELLA TYPHIMURIUM, Strain/Indicator: TA100, Metabolic Activation: NONE, Method: PREINCUBATION
[3] = Test System: AMES SALMONELLA TYPHIMURIUM, Strain/Indicator: TA100, Metabolic Activation: NONE, Method: STANDARD PLATE

Measured: mutagenic call

CCOc1ccc(N=Nc2ccc(-c3ccc(N=Nc4c(O)ccc5cc(S(=O)(=O)O)cc(S(=O)(=O)O)c45)c(C)c3)cc2C)cc1
inactive: Test System: AMES SALMONELLA TYPHIMURIUM, Strain/Indicator: TA98, Metabolic Activation: HAMSTER, LIVER, S-9, AROCLOR 1254 (10%), Method: PREINCUBATION inactive; negative | [1] inactive; negative | Test System: AMES SALMONELLA TYPHIMURIUM, Strain/Indicator: TA98, Metabolic Activation: RAT, LIVER, S-9, AROCLOR 1254 (10%), Method: PREINCUBATION inactive; negative | Test System: AMES SALMONELLA TYPHIMURIUM, Strain/Indicator: TA100, Metabolic Activation: HAMSTER, LIVER, S-9, AROCLOR 1254 (10%), Method: PREINCUBATION inactive; negative | [2] inactive; negative | Test System: AMES SALMONELLA TYPHIMURIUM, Strain/Indicator: TA100, Metabolic Activation: RAT, LIVER, S-9, AROCLOR 1254 (10%), Method: PREINCUBATION inactive; negative | Test System: AMES SALMONELLA TYPHIMURIUM, Strain/Indicator: TA1535, Metabolic Activation: HAMSTER, LIVER, S-9, AROCLOR 1254 (10%), Method: PREINCUBATION inactive; negative | Test System: AMES SALMONELLA TYPHIMURIUM, Strain/Indicator: TA1535, Metabolic Activation: NONE, Method: PREINCUBATION inactive; negative | Test System: AMES SALMONELLA TYPHIMURIUM, Strain/Indicator: TA1535, Metabolic Activation: RAT, LIVER, S-9, AROCLOR 1254 (10%), Method: PREINCUBATION inactive; negative | Test System: AMES SALMONELLA TYPHIMURIUM, Strain/Indicator: TA1537, Metabolic Activation: HAMSTER, LIVER, S-9, AROCLOR 1254 (10%), Method: PREINCUBATION inactive; negative | Test System: AMES SALMONELLA TYPHIMURIUM, Strain/Indicator: TA1537, Metabolic Activation: NONE, Method: PREINCUBATION inactive; negative | Test System: AMES SALMONELLA TYPHIMURIUM, Strain/Indicator: TA1537, Metabolic Activation: RAT, LIVER, S-9, AROCLOR 1254 (10%), Method: PREINCUBATION inactive; negative
active: Test System: AMES SALMONELLA TYPHIMURIUM, Strain/Indicator: TA1538, Metabolic Activation: RAT, LIVER, S-9, AROCLOR 1254, Method: STANDARD PLATE active; positive

Cc1ccc(N=[N+]([O-])c2ccc(C)c([N+](=O)[O-])c2)cc1[N+](=O)[O-]
inactive: Test System: AMES SALMONELLA TYPHIMURIUM, Strain/Indicator: TA98, Metabolic Activation: NONE, Method: SUSPENSION/PLATE inactive; negative | Test System: AMES SALMONELLA TYPHIMURIUM, Strain/Indicator: TA98, Metabolic Activation: RAT, LIVER, S-9, PHENOBARBITAL AND 5,6-BENZOFLAVONE, Method: SUSPENSION/PLATE inactive; negative | Test System: AMES SALMONELLA TYPHIMURIUM, Strain/Indicator: TA100, Metabolic Activation: NONE, Method: SUSPENSION/PLATE inactive; negative | Test System: AMES SALMONELLA TYPHIMURIUM, Strain/Indicator: TA100, Metabolic Activation: RAT, LIVER, S-9, PHENOBARBITAL AND 5,6-BENZOFLAVONE, Method: SUSPENSION/PLATE inactive; negative

ClN1C2c3ccccc3-c3ccccc3C21 (stereo not drawn)
active: [3] active; positive | Test System: CHINESE HAMSTER V-79, Strain/Indicator: V-79/6-THIOGUANINE, Metabolic Activation: NONE, Method: STANDARD PLATE active; positive

CN1C(=O)CC(=O)N(c2ccccc2)c2cc(Cl)ccc21
inactive: Test System: AMES SALMONELLA TYPHIMURIUM, Strain/Indicator: TA98, Metabolic Activation: NONE, Method: STANDARD PLATE inactive; negative | Test System: AMES SALMONELLA TYPHIMURIUM, Strain/Indicator: TA98, Metabolic Activation: RAT, LIVER, S-9, PHENOBARBITAL AND 5,6-BENZOFLAVONE, Method: STANDARD PLATE inactive; negative | [3] inactive; negative | Test System: AMES SALMONELLA TYPHIMURIUM, Strain/Indicator: TA100, Metabolic Activation: RAT, LIVER, S-9, PHENOBARBITAL AND 5,6-BENZOFLAVONE, Method: STANDARD PLATE inactive; negative | Test System: AMES SALMONELLA TYPHIMURIUM, Strain/Indicator: TA1535, Metabolic Activation: NONE, Method: STANDARD PLATE inactive; negative | Test System: AMES SALMONELLA TYPHIMURIUM, Strain/Indicator: TA1535, Metabolic Activation: RAT, LIVER, S-9, PHENOBARBITAL AND 5,6-BENZOFLAVONE, Method: STANDARD PLATE inactive; negative | Test System: AMES SALMONELLA TYPHIMURIUM, Strain/Indicator: TA1537, Metabolic Activation: NONE, Method: STANDARD PLATE inactive; negative | Test System: AMES SALMONELLA TYPHIMURIUM, Strain/Indicator: TA1537, Metabolic Activation: RAT, LIVER, S-9, PHENOBARBITAL AND 5,6-BENZOFLAVONE, Method: STANDARD PLATE inactive; negative | Test System: E. COLI, Strain/Indicator: WP2 UVRA, Metabolic Activation: NONE, Method: STANDARD PLATE inactive; negative

Oc1ccc2cc3c4ccccc4c4ccccc4c3cc2c1
active: Test System: AMES SALMONELLA TYPHIMURIUM, Strain/Indicator: TA100, Metabolic Activation: RAT, LIVER, S-9, AROCLOR 1254, Method: PREINCUBATION active; positive

C=C[C@H]1CN2CC[C@H]1C[C@H]2[C@H](OC(=O)OCC)c1ccnc2ccc(OC)cc12
inactive: [1] inactive; negative | Test System: AMES SALMONELLA TYPHIMURIUM, Strain/Indicator: TA98, Metabolic Activation: RAT, LIVER, S-9, Method: PREINCUBATION inactive; negative | [2] inactive; negative | Test System: AMES SALMONELLA TYPHIMURIUM, Strain/Indicator: TA100, Metabolic Activation: RAT, LIVER, S-9, Method: PREINCUBATION inactive; negative

Source: PubChem BioAssay AID1259407 (Chemical Carcinogenesis Research Information System (CCRIS), 2018)
